Assay results: ChEMBL document CHEMBL1151433, “National and regional assessment of antimicrobial resistance among community-acquired respiratory tract pathogens identified in a 2005-2006 U.S. Faropenem surveillance study” (2007)
Converted amounts (≈) assume the structure as drawn.

Tests used:
Streptococcus pneumoniae [1] = test: Antibacterial activity against Streptococcus pneumoniae ATCC 49619 isolated from respiratory tract infected patients after 20 to 24 hrs by broth microdilution method; format: functional
Streptococcus pneumoniae [2] = test: Antibacterial activity against penicillin-susceptible Streptococcus pneumoniae ATCC 49619 isolated from respiratory tract infected patients after 20 to 24 hrs by broth microdilution method; format: functional
Streptococcus pneumoniae [3] = test: Antibacterial activity against penicillin-intermediate Streptococcus pneumoniae ATCC 49619 isolated from respiratory tract infected patients after 20 to 24 hrs by broth microdilution method; format: functional
Streptococcus pneumoniae [4] = test: Antibacterial activity against penicillin-resistant Streptococcus pneumoniae ATCC 49619 isolated from respiratory tract infected patients after 20 to 24 hrs by broth microdilution method; format: functional
Streptococcus pneumoniae [5] = test: Antibacterial activity against Streptococcus pneumoniae ATCC 49619 isolated from respiratory tract infected patients assessed as susceptible isolates after 20 to 24 hrs by broth microdilution method; format: functional
Streptococcus pneumoniae [6] = test: Antibacterial activity against penicillin-susceptible Streptococcus pneumoniae ATCC 49619 isolated from respiratory tract infected patients assessed as susceptible isolates after 20 to 24 hrs by broth microdilution method; format: functional
Streptococcus pneumoniae [7] = test: Antibacterial activity against penicillin-intermediate Streptococcus pneumoniae ATCC 49619 isolated from respiratory tract infected patients assessed as susceptible isolates after 20 to 24 hrs by broth microdilution method; format: functional
Streptococcus pneumoniae [8] = test: Antibacterial activity against penicillin-resistant Streptococcus pneumoniae ATCC 49619 isolated from respiratory tract infected patients assessed as susceptible isolates after 20 to 24 hrs by broth microdilution method; format: functional
Streptococcus pneumoniae [9] = test: Antibacterial activity against Streptococcus pneumoniae ATCC 49619 isolated from respiratory tract infected patients assessed as resistant isolates after 20 to 24 hrs by broth microdilution method; format: functional
Streptococcus pneumoniae [10] = test: Antibacterial activity against penicillin-susceptible Streptococcus pneumoniae ATCC 49619 isolated from respiratory tract infected patients assessed as resistant isolates after 20 to 24 hrs by broth microdilution method; format: functional
Streptococcus pneumoniae [11] = test: Antibacterial activity against penicillin-intermediate Streptococcus pneumoniae ATCC 49619 isolated from respiratory tract infected patients assessed as resistant isolates after 20 to 24 hrs by broth microdilution method; format: functional
Streptococcus pneumoniae [12] = test: Antibacterial activity against penicillin-resistant Streptococcus pneumoniae ATCC 49619 isolated from respiratory tract infected patients assessed as resistant isolates after 20 to 24 hrs by broth microdilution method; format: functional
Haemophilus influenzae [13] = test: Antibacterial activity against Haemophilus influenzae […] isolated from respiratory tract infected patients after 20 to 24 hrs by broth microdilution method; format: functional; details: ATCC 49247
Haemophilus influenzae [14] = test: Antibacterial activity against beta lactamase-positive Haemophilus influenzae […] isolated from respiratory tract infected patients after 20 to 24 hrs by broth microdilution method; format: functional; details: ATCC 49247
Haemophilus influenzae [15] = test: Antibacterial activity against beta lactamase-negative Haemophilus influenzae […] isolated from respiratory tract infected patients after 20 to 24 hrs by broth microdilution method; format: functional; details: ATCC 49247
Haemophilus influenzae [16] = test: Antibacterial activity against Haemophilus influenzae […] isolated from respiratory tract infected patients assessed as susceptible isolates after 20 to 24 hrs by broth microdilution method; format: functional, ATCC 49247
Haemophilus influenzae [17] = test: Antibacterial activity against beta lactamase-positive Haemophilus influenzae […] isolated from respiratory tract infected patients assessed as susceptible isolates after 20 to 24 hrs by broth microdilution method; format: functional, ATCC 49247
Haemophilus influenzae [18] = test: Antibacterial activity against beta lactamase-negative Haemophilus influenzae […] isolated from respiratory tract infected patients assessed as susceptible isolates after 20 to 24 hrs by broth microdilution method; format: functional
Moraxella catarrhalis = test: Antibacterial activity against Moraxella catarrhalis isolated from respiratory tract infected patients after 20 to 24 hrs by broth microdilution method; format: functional
Streptococcus pneumoniae [19] = test: Antibacterial activity against Streptococcus pneumoniae ATCC 49619 isolated from respiratory tract infected patients within 2 years of age after 20 to 24 hrs by broth microdilution method; format: functional
Streptococcus pneumoniae [20] = test: Antibacterial activity against Streptococcus pneumoniae ATCC 49619 isolated from respiratory tract infected patients with 3 to 5 years of age after 20 to 24 hrs by broth microdilution method; format: functional
Streptococcus pneumoniae [21] = test: Antibacterial activity against Streptococcus pneumoniae ATCC 49619 isolated from respiratory tract infected patients with 6 to 14 years of age after 20 to 24 hrs by broth microdilution method; format: functional
Streptococcus pneumoniae [22] = test: Antibacterial activity against Streptococcus pneumoniae ATCC 49619 isolated from respiratory tract infected patients with 15 to 64 years of age after 20 to 24 hrs by broth microdilution method; format: functional
Streptococcus pneumoniae [23] = test: Antibacterial activity against Streptococcus pneumoniae ATCC 49619 isolated from respiratory tract infected patients more than 65 years of age after 20 to 24 hrs by broth microdilution method; format: functional
Streptococcus pneumoniae [24] = test: Antibacterial activity against Streptococcus pneumoniae ATCC 49619 isolated from respiratory tract infected patients within 2 years of age assessed as resistant isolates after 20 to 24 hrs by broth microdilution method; format: functional
Streptococcus pneumoniae [25] = test: Antibacterial activity against Streptococcus pneumoniae ATCC 49619 isolated from respiratory tract infected patients with 3 to 5 years of age assessed as resistant isolates after 20 to 24 hrs by broth microdilution method; format: functional
Streptococcus pneumoniae [26] = test: Antibacterial activity against Streptococcus pneumoniae ATCC 49619 isolated from respiratory tract infected patients with 6 to 14 years of age assessed as resistant isolates after 20 to 24 hrs by broth microdilution method; format: functional
Streptococcus pneumoniae [27] = test: Antibacterial activity against Streptococcus pneumoniae ATCC 49619 isolated from respiratory tract infected patients with 15 to 64 years of age assessed as resistant isolates after 20 to 24 hrs by broth microdilution method; format: functional
Streptococcus pneumoniae [28] = test: Antibacterial activity against Streptococcus pneumoniae ATCC 49619 isolated from respiratory tract infected patients more than 65 years of age assessed as resistant isolates after 20 to 24 hrs by broth microdilution method; format: functional
Streptococcus pneumoniae [29] = test: Antibacterial activity against Streptococcus pneumoniae ATCC 49619 isolated from respiratory tract infected male patients after 20 to 24 hrs by broth microdilution method; format: functional
Streptococcus pneumoniae [30] = test: Antibacterial activity against Streptococcus pneumoniae ATCC 49619 isolated from respiratory tract infected male patients assessed as resistant isolates after 20 to 24 hrs by broth microdilution method; format: functional
Streptococcus pneumoniae [31] = test: Antibacterial activity against Streptococcus pneumoniae ATCC 49619 isolated from respiratory tract infected female patients after 20 to 24 hrs by broth microdilution method; format: functional
Streptococcus pneumoniae [32] = test: Antibacterial activity against Streptococcus pneumoniae ATCC 49619 isolated from respiratory tract infected female patients assessed as resistant isolates after 20 to 24 hrs by broth microdilution method; format: functional
Streptococcus pneumoniae [33] = test: Antibacterial activity against Streptococcus pneumoniae ATCC 49619 isolated from respiratory tract infected inpatients after 20 to 24 hrs by broth microdilution method; format: functional
Streptococcus pneumoniae [34] = test: Antibacterial activity against Streptococcus pneumoniae ATCC 49619 isolated from respiratory tract infected inpatients assessed as resistant isolates after 20 to 24 hrs by broth microdilution method; format: functional
Streptococcus pneumoniae [35] = test: Antibacterial activity against Streptococcus pneumoniae ATCC 49619 isolated from respiratory tract infected outpatients after 20 to 24 hrs by broth microdilution method; format: functional
Streptococcus pneumoniae [36] = test: Antibacterial activity against Streptococcus pneumoniae ATCC 49619 isolated from respiratory tract infected outpatients assessed as resistant isolates after 20 to 24 hrs by broth microdilution method; format: functional

C[C@@H](O)[C@H]1C(=O)N2C(C(=O)O)=C(S[C@@H]3CN[C@H](C(=O)N(C)C)C3)[C@H](C)[C@H]12 [MEROPENEM]
MIC50 (Streptococcus pneumoniae [1]): 0.015 µg/mL (≈ 0.0391 µM) | MIC90 (Streptococcus pneumoniae [1]): 0.5 µg/mL (≈ 1.3 µM) | MIC50 (Streptococcus pneumoniae [2]): 0.015 µg/mL (≈ 0.0391 µM) | MIC90 (Streptococcus pneumoniae [2]): 0.015 µg/mL (≈ 0.0391 µM) | MIC50 (Streptococcus pneumoniae [3]): 0.06 µg/mL (≈ 0.156 µM) | MIC90 (Streptococcus pneumoniae [3]): 0.25 µg/mL (≈ 0.652 µM) | MIC50 (Streptococcus pneumoniae [4]): 1 µg/mL (≈ 2.61 µM) | MIC90 (Streptococcus pneumoniae [4]): 1 µg/mL (≈ 2.61 µM) | Activity (Streptococcus pneumoniae [5]): 83.2% | Activity (Streptococcus pneumoniae [6]): 100% | Activity (Streptococcus pneumoniae [7]): 93.2% | Activity (Streptococcus pneumoniae [8]): 4.5% | Activity (Streptococcus pneumoniae [9]): 9.5% | Activity (Streptococcus pneumoniae [10]): 0% | Activity (Streptococcus pneumoniae [11]): 0% | Activity (Streptococcus pneumoniae [12]): 59.5% | MIC50 (Haemophilus influenzae [13]): 0.03 µg/mL (≈ 0.0782 µM) | MIC90 (Haemophilus influenzae [13]): 0.12 µg/mL (≈ 0.313 µM) | MIC50 (Haemophilus influenzae [14]): 0.03 µg/mL (≈ 0.0782 µM) | MIC90 (Haemophilus influenzae [14]): 0.06 µg/mL (≈ 0.156 µM) | MIC50 (Haemophilus influenzae [15]): 0.06 µg/mL (≈ 0.156 µM) | MIC90 (Haemophilus influenzae [15]): 0.12 µg/mL (≈ 0.313 µM) | Activity (Haemophilus influenzae [16]): 99.7% | Activity (Haemophilus influenzae [17]): 100% | Activity (Haemophilus influenzae [18]): 99.6% | MIC50 (Moraxella catarrhalis): ≤ 0.004 µg/mL | MIC90 (Moraxella catarrhalis): 0.008 µg/mL (≈ 0.0209 µM)

CC[C@H]1OC(=O)[C@H](C)[C@@H](O[C@H]2C[C@@](C)(OC)[C@@H](O)[C@H](C)O2)[C@H](C)[C@@H](O[C@@H]2O[C@H](C)C[C@H](N(C)C)[C@H]2O)[C@](C)(O)C[C@@H](C)CN(C)[C@H](C)[C@@H](O)[C@]1(C)O [AZITHROMYCIN]
MIC50 (Streptococcus pneumoniae [1]): ≤ 0.12 µg/mL | MIC90 (Streptococcus pneumoniae [1]): > 16 µg/mL | MIC50 (Streptococcus pneumoniae [2]): ≤ 0.12 µg/mL | MIC90 (Streptococcus pneumoniae [2]): 4 µg/mL (≈ 5.34 µM) | MIC50 (Streptococcus pneumoniae [3]): 4 µg/mL (≈ 5.34 µM) | MIC90 (Streptococcus pneumoniae [3]): > 16 µg/mL | MIC50 (Streptococcus pneumoniae [4]): 32 µg/mL (≈ 42.7 µM) | MIC90 (Streptococcus pneumoniae [4]): > 16 µg/mL | Activity (Streptococcus pneumoniae [5]): 65.5% | Activity (Streptococcus pneumoniae [6]): 87.9% | Activity (Streptococcus pneumoniae [7]): 35.5% | Activity (Streptococcus pneumoniae [8]): 19.4% | Activity (Streptococcus pneumoniae [9]): 34% | Activity (Streptococcus pneumoniae [10]): 11.3% | Activity (Streptococcus pneumoniae [11]): 64.5% | Activity (Streptococcus pneumoniae [12]): 80.6% | MIC50 (Haemophilus influenzae [13]): 1 µg/mL (≈ 1.34 µM) | MIC90 (Haemophilus influenzae [13]): 2 µg/mL (≈ 2.67 µM) | MIC50 (Haemophilus influenzae [14]): 1 µg/mL (≈ 1.34 µM) | MIC90 (Haemophilus influenzae [14]): 2 µg/mL (≈ 2.67 µM) | MIC50 (Haemophilus influenzae [15]): 1 µg/mL (≈ 1.34 µM) | MIC90 (Haemophilus influenzae [15]): 2 µg/mL (≈ 2.67 µM) | Activity (Haemophilus influenzae [16]): 98.7% | Activity (Haemophilus influenzae [17]): 98.1% | Activity (Haemophilus influenzae [18]): 98.9% | MIC50 (Moraxella catarrhalis): ≤ 0.12 µg/mL | MIC90 (Moraxella catarrhalis): ≤ 0.12 µg/mL | MIC90 (Streptococcus pneumoniae [19]): > 16 µg/mL | MIC90 (Streptococcus pneumoniae [20]): > 16 µg/mL | MIC90 (Streptococcus pneumoniae [21]): > 16 µg/mL | MIC90 (Streptococcus pneumoniae [22]): > 16 µg/mL | MIC90 (Streptococcus pneumoniae [23]): > 16 µg/mL | Activity (Streptococcus pneumoniae [24]): 50.5% | Activity (Streptococcus pneumoniae [25]): 42.4% | Activity (Streptococcus pneumoniae [26]): 36% | Activity (Streptococcus pneumoniae [27]): 27.6% | Activity (Streptococcus pneumoniae [28]): 33.8% | MIC90 (Streptococcus pneumoniae [29]): > 16 µg/mL | Activity (Streptococcus pneumoniae [30]): 36% | MIC90 (Streptococcus pneumoniae [31]): > 16 µg/mL | Activity (Streptococcus pneumoniae [32]): 31.2% | MIC90 (Streptococcus pneumoniae [33]): > 16 µg/mL | Activity (Streptococcus pneumoniae [34]): 33% | MIC90 (Streptococcus pneumoniae [35]): > 16 µg/mL | Activity (Streptococcus pneumoniae [36]): 34.8%
